Measurements published in US11377442B2, “Small molecule agonists and antagonists of NR2F6 activity” (ZANDER THERAPEUTICS, INC., priority 2016, dated 2022).
Values joined by “and” are separate entries in the source; they are usually repeats but may differ in a detail not shown here. Equal entries are not always repeated. Where two headings read alike, the source gives them in different places.

Columns and labels:
Format in all cases: cell-based
Renilla [1] = experiment: Renilla signal in NR2F6 agonist screening, cmpd/DMSO; details: Renilla
HEK293 pGL4 = experiment: Firefly_pGL signal, cmpd/DMSO (pGL4 control cells); details: Homo sapiens
NR2F6 = target: T1, NR2F6 (Homo sapiens, UniProt P10588); experiment: NR2F6 agonist screening, Firefly signal cmpd/DMSO
T1 construct: expressed in transfected cells; also transient transfection
T1 sequence (P10588 1-404): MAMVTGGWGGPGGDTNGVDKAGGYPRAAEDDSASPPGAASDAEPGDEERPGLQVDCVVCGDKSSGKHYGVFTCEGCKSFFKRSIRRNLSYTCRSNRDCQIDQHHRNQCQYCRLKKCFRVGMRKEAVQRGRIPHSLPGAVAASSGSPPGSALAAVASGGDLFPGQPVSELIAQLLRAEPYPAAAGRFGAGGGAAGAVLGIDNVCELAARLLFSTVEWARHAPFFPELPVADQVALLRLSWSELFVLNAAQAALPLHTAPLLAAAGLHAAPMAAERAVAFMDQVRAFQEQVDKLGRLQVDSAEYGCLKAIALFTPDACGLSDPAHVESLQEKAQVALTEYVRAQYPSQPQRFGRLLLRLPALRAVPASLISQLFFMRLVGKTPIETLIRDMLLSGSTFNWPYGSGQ

Renilla [2] = experiment: Renilla signal, LBD, cmpd/DMSO (NR2F6 LBD transfected cells)
NR2F6 LBD = target: T2, NR2F6 LBD (Homo sapiens, UniProt P10588); experiment: NR2F6 LBD transient transfection
T2 construct: expressed in transfected cells
T2 sequence (P10588 165-393 limits assumed): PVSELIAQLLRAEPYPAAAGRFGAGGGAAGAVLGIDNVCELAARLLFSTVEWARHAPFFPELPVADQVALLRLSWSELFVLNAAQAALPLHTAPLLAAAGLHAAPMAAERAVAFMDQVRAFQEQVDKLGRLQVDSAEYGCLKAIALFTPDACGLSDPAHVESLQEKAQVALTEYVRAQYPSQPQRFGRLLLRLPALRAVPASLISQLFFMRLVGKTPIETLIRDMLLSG
In short: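 LBD-transfected cells treated at 40, 10, 2 and 0.5 μM (4 replicates); cytotoxicity measured in parallel, normalized to DMSO (0%) and zero signal (100%). Higher concentrations excluded where signal loss reflected toxicity.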

[3] = read-out: Renilla F4, cmpd/DMSO (mean)
[4] = F4, read-out: Renilla, F4, cmpd/DMSO (mean)
[5] = F4, 1% FBS, read-out: Renilla, F4, 1% FBS, cmpd/DMSO (mean)
[6] = F4, 10% FBS, read-out: Renilla, F4, 10% FBS, cmpd/DMSO (mean)

Question: Which results are given for `O=S1(=O)C[C@H](N2CCCC2)[C@@H](S(=O)(=O)c2cccs2)C1` [Compound D104]?
Answer: fold induction at 0.5 µM (Renilla [1]; [3]): 1.2; fold induction at 2 µM (Renilla [1]; [3]): 2; fold induction at 10 µM (Renilla [1]; [3]): 1.7; fold induction at 40 µM (Renilla [1]; [3]): 0.3; fold induction at 0.5 µM (Renilla [1]; [4]): 1.1; fold induction at 2 µM (Renilla [1]; [4]): 1.2; fold induction at 10 µM (Renilla [1]; [4]): 1.6; fold induction at 40 µM (Renilla [1]; [4]): 0.3; fold induction at 0.5 µM (Renilla [1]; [5]): 1.1; fold induction at 2 µM (Renilla [1]; [5]): 1.4; fold induction at 10 µM (Renilla [1]; [5]): 2.4; fold induction at 40 µM (Renilla [1]; [5]): 1; fold induction at 0.5 µM (Renilla [1]; [6]): 1; fold induction at 2 µM (Renilla [1]; [6]): 1.3; fold induction at 10 µM (Renilla [1]; [6]): 2.5; fold induction at 40 µM (Renilla [1]; [6]): 2.2; fold induction at 0.5 µM (HEK293 pGL4; HEK293, 0.5 uM, pGL4, read-out: Firefly pGL4, cmpd/DMSO (mean)): 1.3; fold induction at 0.5 µM (HEK293 pGL4; HEK293, 0.5 uM, read-out: Firefly pGL4, cmpd/DMSO (mean)): 1.2; fold induction at 2 µM (HEK293 pGL4; HEK293, 2 uM, pGL4, read-out: Firefly pGL4, cmpd/DMSO (mean)): 1.4; fold induction at 2 µM (HEK293 pGL4; HEK293, 2 uM, read-out: Firefly pGL4, cmpd/DMSO (mean)): 1.8; fold induction at 10 µM (HEK293 pGL4; HEK293, 10 uM, pGL4, read-out: Firefly pGL4, cmpd/DMSO (mean)): 4; fold induction at 10 µM (HEK293 pGL4; HEK293, 10 uM, read-out: Firefly pGL4, cmpd/DMSO (mean)): 2.4; fold induction at 40 µM (HEK293 pGL4; HEK293, 40 uM, pGL4, read-out: Firefly pGL4, cmpd/DMSO (mean)): 0.7; fold induction at 40 µM (HEK293 pGL4; HEK293, 40 uM, read-out: Firefly pGL4, cmpd/DMSO (mean)): 0.7; fold induction at 0.5 µM (HEK293 pGL4; HEK293, pGL4, 1% FBS, 0.5 uM, read-out: Firefly, pGL4, 1% FBS, cmpd/DMSO (mean)): 1; fold induction at 2 µM (HEK293 pGL4; HEK293, pGL4, 1% FBS, 2 uM, read-out: Firefly, pGL4, 1% FBS, cmpd/DMSO (mean)): 1; fold induction at 10 µM (HEK293 pGL4; HEK293, pGL4, 1% FBS, 10 uM, read-out: Firefly, pGL4, 1% FBS, cmpd/DMSO (mean)): 1.5; fold induction at 40 µM (HEK293 pGL4; HEK293, pGL4, 1% FBS, 40 uM, read-out: Firefly, pGL4, 1% FBS, cmpd/DMSO (mean)): 0.6; fold induction at 0.5 µM (HEK293 pGL4; HEK293, pGL4, 10% FBS, 0.5 uM, read-out: Firefly, pGL4, 10% FBS, cmpd/DMSO (mean)): 1.1; fold induction at 2 µM (HEK293 pGL4; HEK293, pGL4, 10% FBS, 2 uM, read-out: Firefly, pGL4, 10% FBS, cmpd/DMSO (mean)): 1.7; fold induction at 10 µM (HEK293 pGL4; HEK293, pGL4, 10% FBS, 10 uM, read-out: Firefly, pGL4, 10% FBS, cmpd/DMSO (mean)): 2.7; fold induction at 40 µM (HEK293 pGL4; HEK293, pGL4, 10% FBS, 40 uM, read-out: Firefly, pGL4, 10% FBS, cmpd/DMSO (mean)): 0.5; Firefly F4, cmpd/DMSO (mean) (NR2F6; 0.5 uM): 2.1; Firefly F4, cmpd/DMSO (mean) (NR2F6; 0.5 uM, F4): 1.7; Firefly F4, cmpd/DMSO (mean) (NR2F6; 2 uM): 4.5; Firefly F4, cmpd/DMSO (mean) (NR2F6; 2 uM, F4): 2.4; Firefly F4, cmpd/DMSO (mean) (NR2F6; 10 uM): 4.3; Firefly F4, cmpd/DMSO (mean) (NR2F6; 10 uM, F4): 6.2; Firefly F4, cmpd/DMSO (mean) (NR2F6; 40 uM): 1.0; Firefly F4, cmpd/DMSO (mean) (NR2F6; 40 uM, F4): 0.8; F4, Firefly/Renilla for S/B(F4) > 3 (NR2F6; 1% FBS, 10 uM): 3.5 and 2.6; F4, Firefly/Renilla for S/B(F4) > 3 (NR2F6; 10% FBS, 10 uM): 4.5 and 4.9; Firefly, F4/pGL4 for S/B(F4) > 3 (NR2F6; 10% FBS, 10 uM): 4.2 and 4.3; Firefly, F4, 1% FBS, cmpd/DMSO (mean) (NR2F6; F4, 1% FBS, 0.5 uM): 0.9; Firefly, F4, 1% FBS, cmpd/DMSO (mean) (NR2F6; F4, 1% FBS, 2 uM): 1.9 and 1.6; Firefly, F4, 1% FBS, cmpd/DMSO (mean) (NR2F6; F4, 1% FBS, 10 uM): 8.5 and 5.1; Firefly, F4, 1% FBS, cmpd/DMSO (mean) (NR2F6; F4, 1% FBS, 40 uM): 0.7 and 0.4; Firefly, F4, 10% FBS, cmpd/DMSO (mean) (NR2F6; F4, 10% FBS, 0.5 uM): 0.8 and 1.3; Firefly, F4, 10% FBS, cmpd/DMSO (mean) (NR2F6; F4, 10% FBS, 2 uM): 1.4 and 1.5; Firefly, F4, 10% FBS, cmpd/DMSO (mean) (NR2F6; F4, 10% FBS, 10 uM): 11 and 13; Firefly, F4, 10% FBS, cmpd/DMSO (mean) (NR2F6; F4, 10% FBS, 40 uM): 1.4 and 1.0; Activity, cmpd/DMSO (NR2F6; Table 31): 7.1; Renilla LBD, cmpd/DMSO (mean) (Renilla [2]; 0.5 uM): 1.1; Renilla LBD, cmpd/DMSO (mean) (Renilla [2]; 2 uM): 1.1; Renilla LBD, cmpd/DMSO (mean) (Renilla [2]; 10 uM): 0.6; Renilla LBD, cmpd/DMSO (mean) (Renilla [2]; 40 uM): 0.2; Firefly LBD, cmpd/DMSO (mean) (NR2F6 LBD; 0.5 uM): 1.3; Firefly LBD, cmpd/DMSO (mean) (NR2F6 LBD; 0.5 uM, LBD): 1.3; Firefly LBD, cmpd/DMSO (mean) (NR2F6 LBD; 2 uM): 2.9; Firefly LBD, cmpd/DMSO (mean) (NR2F6 LBD; 2 uM, LBD): 1.7; Firefly LBD, cmpd/DMSO (mean) (NR2F6 LBD; 10 uM): 1.2; Firefly LBD, cmpd/DMSO (mean) (NR2F6 LBD; 10 uM, LBD): 3.3; Firefly LBD, cmpd/DMSO (mean) (NR2F6 LBD; 40 uM): 0.2; Firefly LBD, cmpd/DMSO (mean) (NR2F6 LBD; 40 uM, LBD): 0.6
